Assay results from article PMC11928584, “H105A peptide eye drops promote photoreceptor survival in murine and human models of retinal degeneration” (Communications Medicine, 2025).
Where a SMILES comes first, the peptide text is derived from it.

Columns and labels:
[1] = system: photoreceptors of rd10/Serpinf1-/- mice; experiment: PSVue-550 fluorescence fundoscopy of photoreceptor cell death (PS externalization); assay type: in vivo, mouse; settings: daily eye drops 5 µl of 1 mg/ml from P15, PSVue-550 fundoscopy P21
Excerpt: (§1) Fluorescence fundoscopy with a cell death probe was chosen as a simple method for monitoring photoreceptor cell death in alive animals. A fluorescent probe, bis (zinc^2+-dipicolylamine)-550, (PSVue®-550) (Molecular Targeting Technologies Inc, cat. P-1005) was reconstituted in Hanks’ Balanced Salt Solution (HBSS, Quality Biological, cat. 114-062-101) according to the manufacturer’s instructions[28],[36]. This probe is suitable for in vivo use to specifically and transiently label dying photoreceptors, such as in living rats with retinal degeneration the Royal College of Surgeons rat model, in a non-invasive and non-toxic method without the need of intraocular injection. Briefly, a stock of 1 mM solution of PSVue®-550 was stored in the dark at 4 °C and used within 14 days directly as eye drop. After 3-4 h of light onset each mouse received eye drops of 5–10 μl of 1 mM PSVue®-550 in the left eye and HBSS in the right eye as control. The eye drop volume was chosen such that the eye cavity was filled without spillage outside the eye, and it was modified depending on eye size. […] To obtain in vivo retinal images of fundi, at 24 h after the probe was administered, the mice were anesthetized, and pupils were dilated with 1% tropicamide for 5 min and kept hydrated with GenTeal. Fluorescence was imaged using a retinal imaging microscope (Micron III, Phoenix Research Labs) using an FF02- 475/50 nm excitation filter (Semrock, Inc.). We observed some variability in optic nerve (ON) fluorescence that could not be readily explained, so the optic nerve was excluded from analyses in all samples.
(§2) To determine the natural history of photoreceptor death of rd10 and rd10/Serpinf1^-/- mice, we assessed photoreceptor cell death in live mice using the fluorescent probe termed PSVue® 550 to monitor PS externalization by fluorescence fundoscopy (Supplementary Fig. 2). Given the reports about the retinas of rd10 mice starting to show histological changes at P16, and with a peak in the number of TUNEL+ nuclei in the ONL at P17-18[13], we monitored PS externalization in photoreceptors of these mice undergoing degeneration before death onset. Eye drops of 1 mM PSVue® 550 solution in HBSS were administered to left eyes and HBSS (vehicle) to their contralateral right eyes of each mouse at ages P16, P20, P22 or P24. PS externalization was determined by fluorescence fundoscopy 24 h post-administration. PSVue labeling of phosphatidylserine (PS) externalization associated with photoreceptor cell death in the rd10 retina (Supplementary Figs. 2, 3).
(§3) Fig. 2 Effect of PEDF peptide eye drops on protection against photoreceptor cell death in rd10 and rd10/Serpinf1^-/- mice. a Illustration of the experimental timeline of peptide application. Eye drops containing 5 µl of 17-mer, H105A, or R99A peptides in HBSS were administered daily to eyes of rd10 and rd10/Serpinf1^-/- mice from P15 to P20. Vehicle (HBSS) was applied in contralateral eyes. At P20, PSVue® was applied via eye drops, and fluorescence fundoscopy was conducted at P21 to assess photoreceptor cell death. RE and LE refer to the right and left eyes, respectively. b Fluorescence fundoscopy micrographs. Representative fluorescence fundoscopy images of retinas from mice treated as in Panel a with eyedrops of 1 mg/ml of each peptide. Quantification of fluorescence intensity was performed using ImageJ, with average intensity values corrected for background fluorescence from eyes that had not received PSVue or peptides. Each line represents data from one animal comparing treated and contralateral eyes, with five eyes (n = 5) per condition. Statistical significance was determined by paired t-test (****p ≤ 0.0001, and ns > 0.05). Scale bar = 0.5 mm. c Dose response of peptide eye drops. Representative fluorescence fundoscopy micrographs showing retinas treated with varying concentrations of 17-mer and H105A peptides (0.0 mg/ml to 1.0 mg/ml) in rd10 and rd10/Serpinf1^-/- mice. […]

[2] = system: photoreceptors of rd10 mice; experiment: as above; assay type: in vivo, mouse; settings: for PS externalization / photoreceptor cell death vs vehicle: daily eye drops 5 µl of 1 mg/ml from P15, PSVue-550 fundoscopy P21
Excerpt: as §1, §2, §3

[3] = system: photoreceptors of rd10/Serpinf1-/- mice; experiment: ONL thickness (histology, spider plot), rd10/Serpinf1-/- mice; assay type: in vivo, mouse; settings: daily eye drops, P21
Experimental: Both eyes were oriented before enucleation to allow sectioning along the dorsal/ventral axis. Enucleated eyes from rd10 and rd10/Serpinf1^-/- mice were incised in the cornea and fixed in 2.5% glutaraldehyde for 20 min and then in 10% neutral buffered formalin at 4 °C for at least 48 h, followed by paraffin embedding, sectioning, and staining with either H&E or immunofluorescence procedures. […] For fluorescence microscopy, antibodies, and 0.1 µg/ml DAPI were used to immunostain and counterstain the nuclei, respectively. […] Fluorescence intensity was quantified using ImageJ, and a rectangle was selected around regions of interest (ROIs), channels were split for multiple antibodies, threshold was adjusted, noise was de-speckled, and fluorescence intensity was measured.
To generate spider plots, the ONL thickness was measured from images passing through the optic nerve (ON) acquired with light microscopy of the retina sections stained with H&E or images of retina sections stained with DAPI with a dorsal-ventral orientation. The ONL thickness in the entire retina sections was measured at 5 different positions from both sides of the ON using ImageJ[28]. […]

PEDF-R = settings: cited from earlier work

SMILES | PS externalization / photoreceptor cell death vs vehicle [1] | PS externalization / photoreceptor cell death vs vehicle [2] | eye drop concentration effective in restraining PS externalization (as low as) ([2]; titration 0.0-1.0 mg/ml, daily eye drops) [mg/mL] | OS length and ONL thickness vs vehicle-treated or untreated eyes [3] | affinity for PEDF-R (PEDF-R)
CC[C@H](C)[C@H](NC(=O)[C@H](CC(C)C)NC(=O)[C@H](CC(=O)O)NC(=O)[C@H](Cc1ccc(O)cc1)NC(=O)[C@H](Cc1ccc(O)cc1)NC(=O)[C@H](CC(C)C)NC(=O)[C@H](C)NC(=O)[C@H](CCCNC(=N)N)NC(=O)[C@H](C)NC(=O)[C@@H](NC(=O)[C@@H](NC(=O)[C@H](CO)NC(=O)[C@H](CCC(=O)O)NC(=O)[C@@H](NC(=O)[C@H](CCCNC(=N)N)NC(=O)[C@@H](N)CCC(N)=O)[C@@H](C)O)[C@@H](C)CC)[C@@H](C)CC)C(=O)N[C@@H](CO)C(=O)O [H105A] (H-QRTESIIARALYYDLIS-OH) | diminished fundi fluorescence | diminished fundi fluorescence | 0.5 | longer OS and thicker outer nuclear layer | have affinity for PEDF-R
CC[C@H](C)[C@H](NC(=O)[C@H](CC(C)C)NC(=O)[C@H](CC(=O)O)NC(=O)[C@H](Cc1ccc(O)cc1)NC(=O)[C@H](Cc1ccc(O)cc1)NC(=O)[C@H](CC(C)C)NC(=O)[C@H](C)NC(=O)[C@H](CCCNC(=N)N)NC(=O)[C@H](Cc1c[nH]cn1)NC(=O)[C@@H](NC(=O)[C@@H](NC(=O)[C@H](CO)NC(=O)[C@H](CCC(=O)O)NC(=O)[C@@H](NC(=O)[C@H](C)NC(=O)[C@@H](N)CCC(N)=O)[C@@H](C)O)[C@@H](C)CC)[C@@H](C)CC)C(=O)N[C@@H](CO)C(=O)O [R99A] (H-QATESIIHRALYYDLIS-OH) | no major efficacy | no major efficacy | – | no effect | lacks PEDF-R affinity
